Experimental data reported in patent US4171367A, “Pyrazolyl amino imidazolines” (Abbott Laboratories, priority 1977, dated 1979).
Counter-ions that a name gives are not always drawn. Like-named read-outs stand apart in the source and are kept apart here.

System: reverse passive Arthus reaction
Test: reverse passive Arthus reaction test in rats (anti-inflammatory effect, oral)
Format: in vivo, rat (male Sprague-Dawley)
Conditions: 4 h, read-out: Percent Inhibition of Arthus Reaction; for inhibition in vivo at 25 mg/kg: oral dose 25 mg/kg
Source text: The anti-inflammatory activity of the compounds of this invention was established using the reverse passive Arthus reaction in the rat as described by G. W. Carter and R. A. Krause in Federation Proceedings, Vol. 35, p. 774, 1976. The carrageenin rat paw edema test (Winter et al, Proc. Soc. Exp. Biol. Med., 111, 554, 1962) can be used to establish anti-inflammatory activity, however, unlike carrageenin induced edema, the Arthus reaction is a well characterized immune reaction which bears close resemblance to the pathogenisis of rheumatoid arthritis.
The Arthus reaction represents one of the oldest and best studied models of immunological injury. It is produced by the injection of antigen locally into a hyperimmunized animal or by the injection of a small amount of antibody into the skin of an animal that has just previously been given a large amount of soluble antigen intravenously. In both cases the antigen and antibody become deposited in the walls of small venules. Plasma complement is rapidly bound and activated. Within a few hours neutrophils (PMNs) accumulate, resulting in disruption of the basement membrane of vessel walls and marked edema and hemorrage in the surrounding tissue.
The reverse passive Arthus reaction test in rats is conducted as follows. Male Sprague-Dawley rats weighing approximately 130-160 g. are used, 4 rats per group. All animals are injected intravenously with 0.5 ml. 0.075% Bovine Serum Albumin (B.S.A.)+0.2% Evans Blue solution. Each rat then receives an oral dose of drug; one drug is administered per group.
Thirty minutes subsequent to drug dosing, each animal is injected intradermally with 0.05 ml. 1.44% Anti-B.S.A. into the dorsal skin. Four hours later the animals are sacrificed, the dorsal skin reflexed, and the lesion excised. Two perpendicular diameters of each lesion are measured. The average diameters of the lesions from the treated groups are compared with the average diameters from the control group to determine any drug effect.
The anti-inflammatory activity of representative compounds of this invention, as determined by the reverse passive Arthus reaction test in rats, is summarized in Table I.

Structure (SMILES) | inhibition in vivo at 100 mg/kg (oral dose 100 mg/kg, rat) [%] | further results
Brc1c(-c2ccccc2)nn(-c2ccccc2)c1NC1=NCCN1 [R1=C6H5, R2=C6H5, R3=Br, R4=H, 2(4-Bromo-1,3-diphenyl-5-pyrazolyl) amino-2-imidazoline hydrobromide] | 17 | 
c1ccc(-c2cc(NC3=NCCN3)n(-c3ccccc3)n2)cc1 [R1=C6H5, R2=C6H5, R3=H, R4=H, 2(1,3-Diphenyl-5-pyrazolyl) amino-2-imidazoline] | 32 | 
Brc1cnn(-c2ccccc2)c1NC1=NCCN1 [R1=C6H5, R2=H, R3=Br, R4=H, 2-(4-Bromo-1-phenyl-5-pyrazolyl)-amino-2-imidazoline hydrochloride] | 59 | inhibition in vivo at 25 mg/kg (rat): 41%
CC(=O)N1CCN=C1Nc1ccnn1-c1ccccc1 [R1=C6H5, R2=H, R3=H, R4=COCH3, 1-Acetyl-2-(1-phenyl-5-pyrazolyl)-amino-2-imidazoline] | 70 | 
c1ccc(-n2nccc2NC2=NCCN2)cc1 [R1=C6H5, R2=H, R3=H, R4=H, 2-(1-Phenyl-5-pyrazolyl)-amino-2-imidazoline] | 75 | inhibition in vivo at 25 mg/kg (rat): 62%
CC(C)c1nn(C(C)C)c(NC2=NCCN2)c1Br [R1=Me2CH, R2=Me2CH, R3=Br, R4=H, 2-(4-Bromo-1,3-di-isopropyl-5-pyrazolyl)amino-2-imidazoline hydrobromide] |  | inhibition in vivo at 100 mg/kg (Rattus norvegicus, po): 27%
CC(C)c1cc(NC2=NCCN2)n(C(C)C)n1 [R1=Me2CH, R2=Me2CH, R3=H, R4=H, 2-(1,3-Di-isopropyl-5-pyrazolyl)-amino-2-imidazoline] | 11 | 
CC(=O)N1CCN=C1Nc1cc(C)nn1C(C)C [R1=Me2CH, R2=Me, R3=H, R4=COCH3, 1-Acetyl-2(1-isopropyl-3-methyl-5-pyrazolyl)amino-2-imidazoline] | 39 | inhibition in vivo at 50 mg/kg (oral dose 50 mg/kg, rat): 30%
Cc1cc(NC2=NCCN2)n(C(C)C)n1 [R1=Me2CH, R2=Me, R3=H, R4=H, 2-(1-Isopropyl-3-methyl-5-pyrazolyl)amino-2-imidazoline] | 29 | inhibition in vivo at 50 mg/kg (oral dose 50 mg/kg, rat): 20%
Cc1nn(CCC(C)C)c(NC2=NCCN2)c1Br [R1=Me2CHCH2CH2, R2=Me, R3=Br, R4=H, 2[4-Bromo-1-(3-methylbutyl)-3-methyl-5-pyrazolyl]amino-2-imidazoline hydrochloride] |  | inhibition in vivo at 100 mg/kg (Rattus norvegicus, po): 16%
Cc1cc(NC2=NCCN2)n(CCC(C)C)n1 [R1=Me2CHCH2CH2, R2=Me, R3=H, R4=H, 2[1-(3-Methylbutyl)-3-methyl-5-pyrazolyl]amino-2-imidazoline] |  | inhibition in vivo at 100 mg/kg (Rattus norvegicus, po): 15%
CC(C)c1nn(C)c(NC2=NCCN2)c1Br [R1=Me, R2=Me2CH, R3=Br, R4=H, 2(4-Bromo-3-isopropyl-1-methyl-5-pyrazolyl)amino-2-imidazoline hydrobromide] |  | inhibition in vivo at 50 mg/kg (Rattus norvegicus, po): 37%; inhibition in vivo at 100 mg/kg (Rattus norvegicus, po): 42%
CC(=O)N1CCN=C1Nc1cc(C(C)C)nn1C [R1=Me, R2=Me2CH, R3=H, R4=COCH3, 1-Acetyl-2(3-isopropyl-1-methyl-5-pyrazolyl)amino-2-imidazoline] | 18 | 
CC(C)c1cc(NC2=NCCN2)n(C)n1 [R1=Me, R2=Me2CH, R3=H, R4=H, 2(3-Isopropyl-1-methyl-5-pyrazolyl)-amino-2-imidazoline] | 42 | inhibition in vivo at 50 mg/kg (oral dose 50 mg/kg, rat): 33%
Cc1nn(C)c(Cl)c1NC1=NCCN1 [R1=Me, R2=Me, R3=(5) (C1), R4=H, 2-(4-chloro-1,3-dimethyl-4-pyrazolyl)-amino-2-imidazoline hydrochloride] | 69 | inhibition in vivo at 10 mg/kg (oral dose 10 mg/kg, rat): 49%; inhibition in vivo at 25 mg/kg (rat): 64%
CC(=O)N1CCN=C1Nc1c(C)nn(C)c1Cl [R1=Me, R2=Me, R3=(5) C1, R4=COCH3, 1-acetyl-2-(5-chloro-1,3-dimethyl-4-pyrazolyl) amino-2-imidazoline hydrochloride] | 63 | inhibition in vivo at 25 mg/kg (rat): 39%
Cc1nn(C)c(NC2=NCCN2)c1Br [R1=Me, R2=Me, R3=Br, R4=H, 2(4-Bromo-1,3-dimethyl-5-pyrazolyl)-amino-2-imidazoline] |  | inhibition in vivo at 50 mg/kg (oral dose 50 mg/kg, rat): 45%
Cc1cc(NC2=NCCN2)n(C)n1 [R1=Me, R2=Me, R3=H, R4=H, 2(1,3-Dimethyl-5-pyrazolyl) amino-b 2-imidazoline] | 55 | 
Cc1nn(C)c(NC2=NCCN2)c1I [R1=Me, R2=Me, R3=I, R4=H, 2(1,3-Dimethyl-4-iodo-5-pyrazolyl)-amino-2-imidazoline] | 43 | 
Brc1cnn(C2CCCCC2)c1NC1=NCCN1 [R1=drawing 4, R2=H, R3=Br, R4=H, 2-(4-Bromo-1-cyclohexyl-5-pyrazolyl)-amino-2-imidazoline hydrochloride] | 15 | 
c1cc(NC2=NCCN2)n(C2CCCCC2)n1 [R1=drawing 5, R2=H, R3=H, R4=H, 2-(1-Cyclohexyl-5-pyrazolyl)-amino-2-imidazoline] | 15 | 
